In patent publication US20220288058A1, “COMBINATION THERAPY USING A MALT1 INHIBITOR AND A BTK INHIBITOR” (Janssen Pharmaceutica NV, priority 2021, published 2022):
“Also recorded” adds a separate entry of the source.

Experiments:
OCI-Ly10 = assay: Inhibition of DLBCL cancer cell proliferation (CellTiter-Glo), Compound A and Compound B mono and combination; type: cell-based, human; settings: monotherapy, highest concentration tested, 4 days
Description: Compound A and Compound B were used throughout the in vitro and cellular assessment of activity. All small molecules were prepared as 100% dimethyl sulfoxide (DMSO) stocks as indicated. A final concentration of 0.25% DMSO was used as a control. High Control=Cells+DMSO 0.25%.
A panel of 4 B-cell lymphoma lines was treated with different doses of both compounds. The following ABC-DLBCL cell lines were tested: OCI-Ly10; TMD8; OCI-Ly3; and HBL1. The cell lines were grown in 96-well plates and treated with a matrix of seven scalar concentrations of Compound A ([…]) and six scalar concentrations of Compound B ([…]) and all combinations thereof. This checkerboard design was repeated on up to four separate plates. The final concentration of DMSO was 0.25%. After an incubation of four days at 37° C. and 5% CO2, cell viability was determined by adding CellTiter-Glo®. Luminescence was read on an Envision device and readouts were used to calculate potential combination effects.
For the assessment of combination effects on DLBCL or MCL cancer cell proliferation, the observed combination effects were evaluated using the public available BIGL (Biochemically Intuitive Generalized Loewe Model) R package which measures the evidence in the data, in the presence of variability, against certain null models derived from the monotherapies. […]

[1] = test system: OCI-LY10 human DLBCL xenografts; assay: Study 2: Compound B monotherapy efficacy, OCI-LY10 xenografts in NSG mice; type: in vivo, mouse; settings: for TGI / ΔTGI: Study 2, Day 45; for animals succumbed to disease burden / animals removed from the study due to tumor progression: Study 2; for animals succumbed to disease burden: by 17 days into the 21-day treatment; for animals removed from the study due to tumor progression: by 21 days of treatment
Description: In efficacy study, Study 2, NSG female animals were injected SC into the right find flank with 5×10^6 OCI-LY10 cells in PBS containing 50% Matrigel™. On day 32, mice were randomized based on tumor volume (mean tumor volume of 207 mm^3) and treated orally once or twice daily with BTK inhibitor Compound B according to treatment schedule above (see Table 4) for 21 days. After the last dose on Day 53, blood was collected serially via submandibular vein sampling from 5 animals per time point per treatment group at 2, 4, 12, and 24 hours after dosing. Blood was collected in EDTA and plasma was obtained via centrifugation at 3000 rpm for 10 minutes. Samples were snap frozen and stored at […] for possible future analyses.
(§1) Tumor volume in SC models was calculated using the formula: tumor volume (mm^3)=(D×d^2/2); where “D” represents the larger diameter and “d” the smaller diameter of the tumor as determined by calliper measurements. Tumor volume data was graphed as the mean tumor volume f SEM.
The percent ΔTGI was defined as the difference between mean tumor burden of the treatment and control groups, calculated using the following formula: ([(TVc−TVc0)−(TVt−TVt0)]/(TVc−TVc0))×100, where “TVc” is the mean tumor burden of a given control group, “TVc0” is the mean initial tumor burden of a given control group, “TVt” is the mean tumor burden of the treatment group, and “TVt0” is the mean initial tumor burden of the treatment group. The percent tumor growth inhibition (TGI) was defined as the difference between mean tumor volumes of the treated and control groups, calculated as: ((TVc−TVt)/TVc)×100 where “TVc” is the mean tumor volume of the control group and “TVt” is the mean tumor volume of the treatment group. […] Johnson et al., Br J Cancer. 2001; 84(10):1424-1431.

[2] = test system: OCI-LY10 human DLBCL xenografts; assay: Study 4: combination efficacy (Compound B BID + Compound A BID), OCI-LY10 xenografts in NSG mice; type: in vivo, mouse
Description: Following early animal dropouts in Study 2 due to tumor progression (metastasis and hindlimb paralysis), NSG female mice in Study 3 and Study 4 were injected SC into the right flank with a lower cell number (1×10^6 OCI-LY10 cells) in PBS containing 50% Matrigel™. On day 35 (Study 3) or day 32 (Study 4), mice were randomized based on tumor volume (see Table 4) and dosed orally QD day with Compound B and BID with Compound A (Study 3) or BID for both compounds (Study 4) with various dose concentrations according to treatment schedule above (see Table 4) for a period of 21 days.
as §1
The percent ΔTGI was defined as the difference between mean tumor burden of the treatment and control groups, calculated using the following formula: ([(TVc−TVc0)−(TVt−TVt0)]/(TVc−TVc0))×100, where “TVc” is the mean tumor burden of a given control group, “TVc0” is the mean initial tumor burden of a given control group, “TVt” is the mean tumor burden of the treatment group, and “TVt0” is the mean initial tumor burden of the treatment group. The percent tumor growth inhibition (TGI) was defined as the difference between mean tumor volumes of the treated and control groups, calculated as: ((TVc−TVt)/TVc)×100 where “TVc” is the mean tumor volume of the control group and “TVt” is the mean tumor volume of the treatment group. […]
Tumor regression was calculated when mean tumor burden in treated group was smaller than the tumor burden at start of treatment of the same treated group. The % Tumor Regression (TR), quantified to reflect the treatment-related reduction of tumor volume as compared to baseline independent of the control group, was calculated using the following formula: % TR=(1-mean (TVti/TVt0i))×100 where “TVti” is the tumor burden of individual animals in a treatment group, and “TVt0i” is the initial tumor burden of the animal. […]

[3] = Body weight and tolerability monitoring of OCI-LY10 tumor bearing NSG mice (Studies 2-4); type: in vivo
Description: Subsequently animal body weight and tumor volume was monitored two to three times per week. Animals were monitored daily for clinical signs related to either compound toxicity or tumor burden (i.e., hind limb paralysis, lethargy, dyspnea, etc.).
Body weight changes of individual mice were calculated using the formula: ([W−W0]/W0)×100, where “W” represents mean body weight on a particular day, and “W0” represents body weight at initiation of treatment. Body weight was graphed as mean body weight change±SEM.

[4] = Study 4, day 52, Compound B 15 mg/kg BID

Structure (SMILES): C=CC(=O)N[C@H]1CCC[C@H]1NC(=O)c1sc2nccc3c2c1NC(=O)N3c1cnc(CC(C)C)cc1C (atropisomer, axis not shown) [Compound B, N-((1R,2S)-2-acrylamidocyclopentyl)-5-(S)-(6-isobutyl-4-methylpyridin-3-yl)-4-oxo-4,5-dihydro-3H-1-thia-3,5,8-triazaacenaphthylene-2-carboxamide]
- proliferation inhibition (OCI-Ly10): up to 75%
- TGI ([1]; Compound B 5 mg/kg BID po): 26%
- ΔTGI ([1]; Compound B 5 mg/kg BID po): 34%
- TGI ([1]; Compound B 10 mg/kg QD po): 24%
- ΔTGI ([1]; Compound B 10 mg/kg QD po): 30%
- TGI ([1]; Compound B 30 mg/kg QD po): 35%
- ΔTGI ([1]; Compound B 30 mg/kg QD po): 45%
- TGI ([1]; Compound B 50 mg/kg BID po): 78%
- ΔTGI ([1]; Compound B 50 mg/kg BID po): 102%
- animals succumbed to disease burden ([1]; Compound B 10 mg/kg QD): two animals
- animals succumbed to disease burden ([1]; Compound B 100 mg/kg QD): a mouse
- animals removed from the study due to tumor progression ([1]; Compound B 5 mg/kg BID): 4/10
- animals removed from the study due to tumor progression ([1]; Compound B 10 mg/kg QD): 7/10
- animals removed from the study due to tumor progression ([1]; Compound B 15 mg/kg BID): 1/10
- animals removed from the study due to tumor progression ([1]; Compound B 30 mg/kg QD): 2/10
- animals removed from the study due to tumor progression ([1]; Compound B 100 mg/kg QD): 3/10
- TGI [2, 4]: 49%
- ΔTGI [2, 4]: 56%
- TR (tumor regression) ([2]; Study 4, Compound B 50 mg/kg BID monotherapy): 8%
- body weight ([3]; Study 2, 3 weeks of treatment): no body weight loss was observed
- animals found dead or taken off study due to negative clinical signs ([3]; Study 3, Compound B 30 mg/kg QD): one animal
- body weight loss during the 3 weeks of treatment ([3]; Study 3 and Study 4, similar frequencies in vehicle group): low level, transient body weight loss; also recorded: low level, transient, body weight loss
- animals removed due to reaching the maximum allowed body weight loss of 20% ([3]; Study 4, Compound B 15 mg/kg): one each
- animals died during the study ([3]; Study 4, Compound B 50 mg/kg): one animal
- tolerability in NSG mice ([3]; all dose levels tested, up to 50 mg/kg BID or 100 mg/kg QD): well tolerated
